Data on one substance can be found in US10265346B2, “Trehalose-containing mammalian cell suspension for prevention of pulmonary embolism formation” (OTSUKA PHARMACEUTICAL FACTORY, INC., priority 2012, dated 2019).

This assay is described as follows: Preventive effect against pulmonary embolism formation (no method given). To be noted: stated as demonstrated by the present inventors, no data given.

Regarding dextran, the “preventive effect against pulmonary embolism formation (in words)” value is on record as “demonstrated to have a preventive effect against pulmonary embolism formation”.
